US20090010923A1, “TREATMENT OF CANCER WITH ANTI-MUSCARINIC RECEPTOR AGENTS” (University of Maryland, Baltimore, priority 2007, published 2009)
Entries after “also recorded” stand apart in the source; their conditions may differ. One block for each compound: values may come before it.

How the values were obtained:
[1] = system: CHO cells expressing rat M3R (CHO-rM3R); experiment: p44/42 MAPK phosphorylation in CHO cells expressing rat M3R; assay type: cell-based
Description: (§1) In H508 colon cancer cells, acetylcholine (ACh) activates p44/42 MAPK and p90RSK, which is a nuclear response protein that regulates gene expression and the cell cycle.

H508 cells [2] = experiment: p44/42 MAPK phosphorylation/activation in H508 colon cancer cells; assay type: cell-based, human
Description: as §1

WT and M3R−/− mice = experiment: AOM murine colon cancer model (WT and M3R-/- mice); assay type: in vivo, mouse; settings: for colon tumor number: 20 weeks
Method: WT and M3R^−/− male mice (129S6/SvEvTac×CFl; 50%/50%) were treated for 6 wks in which 48 animals received weekly intraperitoneal (ip) PBS (control) or AOM (10 mg/kg). The AOM mouse model is a well-established, commonly used model that mimics human colon carcinogenesis. AOM, an intermediate in the metabolism of 1,2-dimethylhydrazine to the alkylating ion methyldiazonium, is a well-known colorectal-specific pro carcinogen. AOM-induced rodent tumors mimic human colon cancer in that most tumors arise in the colon, form grossly visible exophytic polypoid or plaque-like growths, and have a microscopic appearance similar to that of human lesions. Molecular changes in AOM-induced tumors, including β-catenin and p53 mutations, which also mimic those in human colon cancer. […] Short-term study end-points are identified (e.g. aberrant crypt foci (ACF), β-catenin-accumulating crypts (BCAC) and BrdUrd staining) and potential toxicity was evaluated, a smaller group of mice is euthanized early, upon completion of AOM treatment. During the study, WT and M3R^−/− mice were given weekly (for 6 weeks) intraperitoneal (ip) PBS (control; n=10 WT-PBS mice) or AOM (10 mg/kg; n=22 WT-AOM and 16 WT and M3R^−/−-AOM mice). […] Animals were housed under identical conditions and fed standard mouse chow. Mice were weighed weekly, observed for evidence of tumor formation (e.g., anal bleeding) and euthanized at 20 weeks. Colon length was measured, segments opened longitudinally, and tumors identified and photographed using a Nikon SMZ1500 dissecting microscope. Tumor number and diameter were measured using Image-Pro software and tumor volume was calculated: vol=½ width×length^2. Two hours before euthanasia, mice received intraperitoneal injection of BrdU (Sigma-Aldrich) (50 mg/kg) to label S-phase cells, a marker of proliferation. BrdU labeling was determined after immunostaining with anti-BrdU antibody (BD Bioscience) by counting BrdU-positive nuclei in 1000 cells (data expressed as percent of total cells that were BrdU-positive). As a marker of apoptosis, we used immunostaining with anti-activated caspase-3 antibody (Cell Signaling Technology). Only complete crypts were evaluated and investigators were masked to treatment group. For analysis of both BrdU and activated caspase-3 staining, only tissue from the distal half of the colon was examined.

H508 cells [3] = experiment: Cell proliferation, sulforhodamine B (SRB) colorimetric assay, H508 cells; assay type: cell-based, human; settings: 5 days, 37° C.; for proliferation of H508 cells: alone, cells co-express M3R and EGFR
Method: (§2) FIG. 1 depicts bile acid-induced colon cancer cell proliferation which requires M3R expression and activation in H508 and SNU-C4 cells. […] Cell proliferation was determined using the sulforhodamine B (SRB) colorimetric assay. Mean±SEM of 3 exp.
(§3) Cells that are known to express both EGFR and M3R were treated with several M3R antagonists and bile acid conjugates to determine if M3R ligand binding affected EGFR activation. […] Cell proliferation was determined using the sulforhodamine B (SRB) colorimetric assay. […] Mean±SEM of 3 exp.
MAPK activation was detected with 10 μM and maximal with 300 μM DCT. […] DCT-induced MAPK activation is rapid and reversible. MAPK activation is detected within 1 min, maximal by 10-20 min and returns to basal by 70 min. Collectively these findings emphasize the importance of co-expression of M3R and EGFR for both ACh- and bile acid-induced colon cancer cell proliferation, and define relevant DCT concentrations.

SNU-C4 cells = experiment: Cell proliferation, sulforhodamine B (SRB) colorimetric assay, SNU-C4 cells; assay type: cell-based, human; settings: 5 days, 37° C., alone; cells express EGFR but not M3R
Method: as §2, §3

colon cancer cells [4] = experiment: Post-EGFR PI3K/Akt and GSK-3 signaling in colon cancer cells; assay type: cell-based
Description: The rationale for including both murine colon cancer models in this study is to observe important differences between these cancer models. Although the Apc^Min/+ genotype mimics more closely the human condition (e.g. FAP), the AOM-treated mouse phenotype is more similar to human colon cancer. […] Additionally, Apc^Min/+ mice provide an opportunity to study the relationship between M3R and activation and expression of genes in the Wnt/β-catenin signaling pathway. Binding of Wnt to its cell surface receptor (Frizzled) leads to activation of β-catenin (nuclear translocation and binding to Tcf/LEF, resulting in transcription of important target genes, including cyclin D1). Apc, is a scaffold protein that promotes GSK-3α/β-mediated phosphorylation of β-catenin; phosphorylated β-catenin is targeted for proteosomal degradation, thereby preventing nuclear translocation and pro-proliferative gene transcription. Mutated Apc in Apc^Min/+ mice results in reduced β-catenin phosphorylation, thereby promoting nuclear translocation and pro-proliferative actions. […] These findings provide strong evidence that bile acid-activated M3R signaling can promote pro-proliferative actions of β-catenin. The Apc^Min/+ mouse provides an excellent model to elucidate the role of M3R activation and expression in Wnt/β-catenin signaling.
(§4) apoptosis, or both. Deoxycholic acid induces apoptosis.

colon cancer cells [5] = experiment: Caspase-3 activation (apoptosis) in colon cancer cells; assay type: cell-based
Description: as §4

[6] = system: muscarinic receptors on gastric chief cells; experiment: Pepsinogen secretion from gastric chief cells; assay type: cell-based
[7] = system: muscarinic receptors on gastric chief cells; experiment: Competition for binding with a muscarinic radioligand, gastric chief cells
[8] = system: muscarinic receptors on gastric chief cells; experiment: IP formation, gastric chief cells; assay type: cell-based
[9] = cited from earlier work
M1R and M3R = system: M1R and M3R
Description: Muscarinic receptor subtypes were expressed in murine gastric chief cells using M1R^−/−, M3R^−/− and M1/3R^−/− mice. […] The mice were generated using gene targeting.

Compound: CC(=O)OCC[N+](C)(C)C [ACh, acetylcholine]
- ACh-induced p44/42 MAPK phosphorylation [1]: 27 fold
- ACh-induced p44/42 MAPK phosphorylation (H508 cells [2]; H508 cells): 14 fold

- adenocarcinomas/mouse (WT and M3R−/− mice; AOM-treated M3R-/- mice): 0.6±0.1
- mice with adenomas (WT and M3R−/− mice; AOM-treated M3R-/- mice): 6%
- tumor volume (WT and M3R−/− mice; AOM-treated M3R-/- mice): 8.1±1.5 mm^3
- colon tumor number (WT and M3R−/− mice; AOM-treated M3R-/- mice): 3.2±0.3 tumors/colon
- adenocarcinomas/mouse (WT and M3R−/− mice; AOM-treated WT mice): 1.7±0.4
- mice with adenomas (WT and M3R−/− mice; AOM-treated WT mice): 36%
- tumor volume (WT and M3R−/− mice; AOM-treated WT mice): 20.3±4.1 mm^3
- colon tumor number (WT and M3R−/− mice; AOM-treated WT mice): 5.3±0.5 tumors/colon
- increase in tumors/animal (WT and M3R−/− mice; WT mice treated with AOM): 5 fold
Compound: CN=[N+](C)[O-] [AOM, azoxymethane]
- BrdU-positive cells in colon epithelium (WT and M3R−/− mice; AOM-treated M3R-/- mice): 7.2±0.9%
- BrdU-positive cells in colon epithelium (WT and M3R−/− mice; AOM-treated WT mice): 16.6±4.0%
- increase in BrdU-positive epithelial cells (WT and M3R−/− mice; AOM-treated WT mice vs PBS-treated WT, 10 mg/kg ip weekly x 6 wks, 20 wks): 5 fold
- number of apoptotic cells (activated caspase-3) (WT and M3R−/− mice; PBS-treated WT, AOM-treated WT and M3R-/- mice): no significant difference

Compound: C[C@H](CCC(=O)NCC(=O)O)[C@H]1CC[C@H]2[C@@H]3CC[C@@H]4C[C@H](O)CC[C@]4(C)[C@H]3C[C@H](O)[C@]12C [DCG]
- proliferation of H508 cells (H508 cells [3]): stimulate proliferation
- proliferation of SNU-C4 cells (SNU-C4 cells): do not significantly alter proliferation

Compound: C[C@H](CCC(=O)NCCS(=O)(=O)O)[C@H]1CC[C@H]2[C@@H]3CC[C@@H]4C[C@H](O)CC[C@]4(C)[C@H]3C[C@H](O)[C@]12C [DCT, Deoxycholyltaurine]
- proliferation of H508 cells (H508 cells [3]): stimulate proliferation; also recorded: stimulated after 5 days
- phosphorylation of GSK-3α/β (colon cancer cells [4]; colon cancer cells): stimulates an inactivating phosphorylation
- post-EGFR PI3K/Akt signaling (colon cancer cells [4]; preliminary studies): activates
- proliferation of SNU-C4 cells (SNU-C4 cells): do not significantly alter proliferation
- DCT-induced apoptosis (caspase-3 activation) (colon cancer cells [5]): no evidence of DCT-induced apoptosis
- DCT concentration at which MAPK activation was detected (H508 cells [2]): 10 µM
- DCT concentration at which MAPK activation was maximal (H508 cells [2]): 300 µM
- time at which MAPK activation is detected (H508 cells [2]): ≤ 1 min
- time at which MAPK activation returns to basal (H508 cells [2]): ≤ 70 min
- time of maximal MAPK activation (H508 cells [2]): 10 to 20 min

Compound: C[C@H](CCC(=O)NCCS(=O)(=O)O)[C@H]1CC[C@H]2[C@@H]3CC[C@@H]4C[C@H](O)CC[C@]4(C)[C@H]3CC[C@]12C [LCT, lithocholyltaurine]
- proliferation of H508 cells (H508 cells [3]): stimulate proliferation
- pepsinogen secretion [6]: stimulating pepsinogen secretion
- proliferation of SNU-C4 cells (SNU-C4 cells): do not significantly alter proliferation
- competition for binding with a muscarinic radioligand [7]: competed for binding
- IP formation [8]: increased IP formation

Compound: CN1[C@@H]2CC[C@H]1C[C@@H](OC(=O)C(CO)c1ccccc1)C2 (stereo partly drawn) [atropine]
- inhibition of actions of DCT on H508 proliferation (H508 cells [3]; with DCT): inhibited
- inhibition of the actions of LCT [6]: inhibited the actions of LCT

Compound: CCCC[N+]1(C)[C@@H]2C[C@@H](OC(=O)[C@H](CO)c3ccccc3)C[C@H]1[C@@H]1O[C@@H]12 (stereo partly drawn) [scopolamine butylbromide]
- activity of metabolites ([9]; in vivo): inactive
- half-life of the terminal elimination phase ([9]; in vivo): about 5 hr
- protein binding ([9]; in vivo): low
- blood-brain barrier crossing ([9]; quaternary ammonium derivative): does not cross the blood-brain barrier

Compound: NCCS(=O)(=O)O [taurine]
- pepsinogen secretion [6]: did not alter
- competition for binding with a muscarinic radioligand [7]: did not alter
- IP formation [8]: did not alter

Compound: cholecystokinin [cholecystokinin (CCK)]
- agonist-induced pepsinogen secretion (M1R and M3R): not altered

Compound: cholyltaurine
- pepsinogen secretion [6]: did not alter
- competition for binding with a muscarinic radioligand [7]: did not alter
- IP formation [8]: did not alter
